Target: DB3 VH/K expressed as an ARM
Test: Inhibition by free steroids of DB3 VH/K ARM binding to progesterone-coated beads
Design: species or system mouse
Settings: free steroid added to DB3 ARM mixture
Experimental: FIG. 6. […] This supports the correct folding of the antibody fragment on the ribosome.
The free steroid inibitors were added to the DB3 ARM mixture in order to block binding to the progesterone-coated beads. They are progesterone-11α-hemisuccinate (HMS) (P11), progesterone-3-carboxymethyloxime (P3); progesterone-6-HMS (P6) and progesterone-21-HMS (P21). The inhibition of free DB3 VH/K in an ELISA reaction is shown on the right, with the efficiency of the steroids in the order P11>P3>P6>P21.

50% inhibition of DB3 VH/K ARM binding: 1 ng
IC50 (read-out: 50% inhibition of DB3 VH/K ARM binding): 2.5 nM
SMILES: CC(=O)[C@H]1CC[C@H]2[C@@H]3CCC4=CC(=O)CC[C@]4(C)[C@H]3[C@H](OC(=O)CCC(=O)O)C[C@]12C [progesterone-11α-HMS, progesterone-11α-hemisuccinate]

From patent publication US6620587B1, “Ribosome complexes as selection particles for in vitro display and evolution of proteins” (Discerna Limited, priority 1997, dated 2003)
